Experiments:
[1] = system: OVCAR-3; assay: Cytotoxicity against human OVCAR-3 cells assessed as reduction in cell viability measured after 72 hrs by celltiter-blue cell viability assay; format: functional, cell-based; conditions: OVCAR-3, 72 h
[2] = system: MDA-MB-435; assay: Cytotoxicity against human MDA-MB-435 cells assessed as reduction in cell viability measured after 72 hrs by celltiter-blue cell viability assay; format: functional, cell-based; conditions: MDA-MB-435, 72 h

SMILES	IC50 [1]	IC50 [2]
COC(=O)O[C@H]1C[C@H]2O[C@@H]2c2cc(OC)cc(O)c2C(=O)O[C@@H](C)C/C=C\C(=O)[C@H]1O	1700 nM	1700 nM
COc1cc(O)c2c(c1)[C@H]1O[C@@H]1C[C@H](OC(C)=O)[C@H](O)C(=O)/C=C\C[C@H](C)OC2=O	1700 nM	1700 nM
COC(=O)O[C@@H]1C(=O)/C=C\C[C@H](C)OC(=O)c2c(O)cc(OC)cc2[C@H]2O[C@@H]2C[C@@H]1O	1700 nM	1700 nM
COc1cc(O)c2c(c1)[C@H]1O[C@@H]1C[C@H](OC(=O)CCC(=O)O)[C@H](O)C(=O)/C=C\C[C@H](C)OC2=O	1700 nM	1700 nM
C=CCOC(=O)O[C@H]1C[C@H]2O[C@@H]2c2cc(OC)cc(O)c2C(=O)O[C@@H](C)C/C=C\C(=O)[C@H]1O	1700 nM	1700 nM
COc1cc(O)c2c(c1)[C@H]1O[C@@H]1C[C@H](OC(=O)/C=C\C(=O)O)[C@H](OC(=O)/C=C\C(=O)O)C(=O)/C=C\C[C@H](C)OC2=O	1700 nM	1700 nM
COc1cc(O)c2c(c1)[C@H]1O[C@@H]1C[C@H](O)[C@H](OC(C)=O)C(=O)/C=C\C[C@H](C)OC2=O	1700 nM	1700 nM
C=CCOC(=O)O[C@@H]1C(=O)/C=C\C[C@H](C)OC(=O)c2c(O)cc(OC)cc2[C@H]2O[C@@H]2C[C@@H]1O	1700 nM	1700 nM
COc1cc(O)c2c(c1)[C@H]1O[C@@H]1C[C@H](OC(=O)/C=C\C(=O)O)[C@H](O)C(=O)/C=C\C[C@H](C)OC2=O	1700 nM	1700 nM
CCOC(=O)O[C@H]1C[C@H]2O[C@@H]2c2cc(OC)cc(O)c2C(=O)O[C@@H](C)C/C=C\C(=O)[C@H]1O	1700 nM	1700 nM
COc1cc(O)c2c(c1)[C@H]1O[C@@H]1C[C@H](O)[C@H](O)C(=O)/C=C\C[C@H](C)OC2=O [HYPOTHEMYCIN]	2600 nM	1900 nM

Reference: ChEMBL document CHEMBL5120924 (J Nat Prod, 2022)
